From patent publication EP1428528A1, “Synergistic combinations of dietary fiber and NSAIDs for the treatment of cancer” (Tiense Suikerraffinaderij N.V., priority 2002, dated 2004)
Marks after values point to notes of the source that are not given here.

Assays:
[1] = system: azoxymethane-induced aberrant crypt foci in rat colon; assay: Aberrant crypt foci (ACF) study in azoxymethane-treated rats, Example 1; format: in vivo, male Fisher 344 weanling rats; details: for Total ACF / Number of foci with 1 aberrant crypt per focus / Number of foci with 2 aberrant crypts per focus / Number of foci with 3 aberrant crypts per focus / Number of foci with 4 aberrant crypts per focus / Number of foci with 5(+) (5 and more) aberrant crypts per focus: Example 1, Table 3; for Total ACF / Number of foci with 1 aberrant crypt per focus / Number of foci with 2 aberrant crypts per focus / Number of foci with 3 aberrant crypts per focus / Number of foci with 4 aberrant crypts per focus / Number of foci with 5(+) (5 and more) aberrant crypts per focus / Number of AOM-induced ACF in rat colon in proximal part / Number of AOM-induced ACF in rat colon in distal part / Number of AOM-induced ACF in rat colon in total ACF in colon: Means ± SE, n=10; for Number of foci with 1 aberrant crypt per focus / Number of foci with 2 aberrant crypts per focus / Number of foci with 3 aberrant crypts per focus / Number of foci with 4 aberrant crypts per focus / Number of foci with 5(+) (5 and more) aberrant crypts per focus: proximal and distal colon; for Number of AOM-induced ACF in rat colon in proximal part / Number of AOM-induced ACF in rat colon in distal part / Number of AOM-induced ACF in rat colon in total ACF in colon: diet 13 weeks, inulin 100 g/kg and/or NSAID 0.2 g/kg diet; for Number of AOM-induced ACF in rat colon in proximal part: AOM 16mg/kg s.c. at 7 and 8 weeks of age; for Number of AOM-induced ACF in rat colon in distal part / Number of AOM-induced ACF in rat colon in total ACF in colon: AOM 16mg/kg s.c.
Method: The inulin used was Synergy1 (in short Syn1) and Synergy2 (in short Syn2), which are mixtures of oligofructose (RAFTILOSE®) and inulin of av. DP of 23 to 25 (RAFTILINE®) with a total content of inulin with a DP 9 and DP 10 of maximally 5 % by weight, at a weight ratio of 1:1 and 1:2, respectively, obtained from ORAFTI (Belgium) (RAFTILOSE® and RAFTILINE® are trade names of RT/TS, Belgium). The diets were prepared fresh every week and stored at 4°C until fed. The experimental diets were formulated based on AIN 93G diets. The ingredients were obtained from ICN Biomedicals, Aurora, OH, USA. All other chemicals were obtained from Sigma Chemical Co., St. Louis, MO, USA. All the protocols involving rats have been approved by the Institutional Animal Care and Use Committee of Alabama A& M University.
(§1) After 1 week of acclimatisation, 100 male Fisher 344 weanling rats were divided into 10 groups of 10 rats per group and assigned the AIN93G (Control) diet or the experimental diets for 13 weeks. For the study, temperature was maintained at 21°C ± 1°C, relative humidity at 50%, and light and dark cycles at 12 hours each. Feed and water were provided ad libitum. Weekly body weights and daily feed intake were recorded. After adaptation, all animals received two subcutaneous injections of azoxymethane (AOM) in saline at 16mg/kg body weight at 7 and 8 weeks of age. At the end of the feeding period, the animals were sacrificed using CO2 euthanasia after an overnight's fast. Accordingly, the colons of the rats were removed, flushed with potassium phosphate buffer 0.1M (pH 7.2) and examined for aberrant crypt foci (ACF) and tumours.

[2] = system: azoxymethane-induced aberrant crypt foci in rat colon; assay: Aberrant crypt foci (ACF) study in azoxymethane-treated rats, Example 2 (same protocol as Example 1); format: in vivo, Fisher 344 male rats
Method: as §1
In example 2, experiments similar to the ones of example 1 were carried out, to examine the anti-cancer effects of a composition containing a combination of RAFTILINE® HP and sulindac. The 4 groups each of 10 Fisher 344 male rats were given a diet containing either control diet, control diet + RAFTILINE®HP, control diet + sulindac, or control diet + RAFTILINE®HP + sulindac (RAFTILINE® : trade name of RT/TS, Belgium). The protocol of the experiments was the same as the one of example 1.

colorectal adenomas = details: patients with familial adenomatous polyposis; cited from earlier work
[3] = Example 2, Table 6, Means ± SEM
[4] = Example 2, inulin 100 g/kg and/or sulindac 0.2 g/kg diet, Means ± SE, n as indicated

| SMILES | Total ACF [1] | Number of foci with 1 aberrant crypt per focus [1] | Number of foci with 2 aberrant crypts per focus [1] | Number of foci with 3 aberrant crypts per focus [1] | Number of foci with 4 aberrant crypts per focus [1] | Number of foci with 5(+) (5 and more) aberrant crypts per focus [1] | Number of AOM-induced ACF in rat colon in proximal part ([1]; Example 1) | Number of AOM-induced ACF in rat colon in distal part ([1]; Example 1) | Number of AOM-induced ACF in rat colon in total ACF in colon ([1]; Example 1) | also measured |
| --- | --- | --- | --- | --- | --- | --- | --- | --- | --- | --- |
| CC1=C(CC(=O)O)c2cc(F)ccc2/C1=C\c1ccc([S+](C)[O-])cc1 (centres unmarked) [Sulindac] | 73.87 ± 4.25 ^b | 4.08 ± 0.48^c | 12.14± 2.04^b | 20.37 ± 2.40^b | 20.48 ± 2.48^b | 16.80 ± 0.78^b | 11.24 ± 0.90^b | 62.58 ± 1.68^b | 73.87 ± 4.25 ^b | reduction of the incidence of ACF compared to the controls ([1]; Example 1, inulin at 10 % level and/or NSAID in diet): about 53%; overall reduction in ACF (total colon) compared to the control diet ([2]; Example 2): about 52%; reduction of ACF in the distal colon compared to the control diet group ([2]; Example 2): about 44%; reduction of ACF in the proximal colon compared to the control diet group ([2]; Example 2): about 74%; Number of foci with 1 aberrant crypt per focus [2, 3]: 3.50 ± 0.38 ^b; Number of foci with 2 aberrant crypts per focus [2, 3]: 11.67 ± 1.19^b; Number of foci with 3 aberrant crypts per focus [2, 3]: 22.17± 1.03 ^c; Number of foci with 4 aberrant crypts per focus [2, 3]: 22.50 ± 0.86^b; Number of foci with 5(+) (5 and more) aberrant crypts per focus [2, 3]: 15.33 ± 0.45 ^c; Total ACF [2, 3]: 75.08 ± 1.93^d; foci with 3, 4 and 5 or more aberrant crypts compared to the other groups ([2]; Example 2, statement in text): significantly lower (p<0.05); Number of AOM-induced ACF in rat colon in distal part [2, 4]: 64.50 ± 1.54^d; Number of AOM-induced ACF in rat colon in proximal part [2, 4]: 10.58 ± 0.90^c; Number of AOM-induced ACF in rat colon, Total ACF in colon [2, 4]: 75.1 ± 1.93; number and size of colorectal adenomas compared to patients given placebo (colorectal adenomas): significantly reduce the number and size of colorectal adenomas |
| CN1C(C(=O)Nc2ccccn2)=C(O)c2ccccc2S1(=O)=O [Piroxicam] | 62.64 ± 2.86^c | 4.18 ± 1.04^c | 13.16 ± 1.54^b | – | 14.78 ± 1.94^c | 14.24 ± 0.94^b | 12.16 ± 1.04^b | 50.48 ± 1.09^b | 62.64 ± 2.86^c | – |
| CC(=O)Oc1ccccc1C(=O)O [Aspirin, acetyl salicylate] | 64.40 ± 3.46^c | 6.50 ± 1.12^b | 12.48 ± 1.23^b | 17.42 ± 1.94^b | 15.86 ± 1.82^c | 12.14 ± 0.86^b | 10.26 ± 1.11^b | 54.14 ± 1.96^b | 64.40 ± 3.46^c | – |
